One data set relates to CCRF-CEM cells. The data set is described as follows: Growth inhibition of CCRF-CEM human leukemia cells, 72 h, Coulter counter (Table I). It is filed as cell-based. The conditions noted are these: read-out: IC50, concentration required for 50% inhibition of growth. As for the experimental part:
Cluster plates were prepared in duplicate with the compound at various concentrations ranging from 100 μg/ml to 0.005 μg/ml. Test compounds were dissolved initially in DMSO and further diluted with solvent to the desired concentration.

Another data set concerns 6C3HED lymphosarcoma. The data set is described as follows: In vivo test against transplanted 6C3HED (Gardner) lymphosarcoma in C3H mice (Table II). As for the experimental part: The compounds were tested in C3H mice bearing a 6C3HED lymphosarcoma, also known as the Gardner lymphosarcoma (GLS). The 6C3HED lymphosarcoma was obtained from the Division of Cancer Treatment, National Cancer Institute, Tumor Bank, maintained at E. G. and G. Mason Research (Worcester, Massachusetts). First passage tumor was stored in liquid nitrogen using standard techniques. The transplanted tumor was reestablished from the Tumor Bank every six months or as needed. The tumor was maintained by serial passage twice weekly in C3H mice.
In the procedure, the tumor was removed from passage animals and minced into 1- to 3-mm square fragments using sterile techniques. Tumor pieces were checked for sterility using both Antibiotic Medium 1 and Brain Heart Infusion (Difco, Detroit, Mich.). Recipient mice were shaved and tumor pieces were implanted subcutaneiously in the auxiliary region by trocar. Drug therapy on the appropriate schedule was initiated on the day after tumor implant. The compound being tested was mixed with 2.5 weight % of a polyoxyethylated oil known as "Emulphor EL 620" surfactant from GAF Chemicals Corporation (1:40 dilution of Empulphor in saline). All animals were weighed at the beginning and end of administration of the subject compounds. Food and water were provided ad libitum. The drug was administered in 0.5 ml of 2.5% Emulphor. Unless otherwise indicated, the compound was administered once per day for eight days. The tumor was measured the day after treatment ended with two dimensional measurements (width and length) of the tumor taken using digital electronic calipers interfaced to a microcomputer, J. F. Worzalla, et al., Investigational New Drugs, 8, 241-251 (1990). Tumor weights were calculated from these measurements using the following formula:
(tumor weight in mg)=width in mm)^2 ×(length in mm)/2
At least one control group of an equal number of mice was treated with the same volume of 2.5% Emulphor only.

In data set [1] the target is T1, human dihydrofolate reductase (DHFR) (Homo sapiens, UniProt P00374).
T1 construct: was obtained from human leukemic lymphoblasts (WI-L2/M4 cells); endogenous in cells; host or cells: WI-L2/M4 human leukemic lymphoblasts; enzyme purified from the cells according to Delcamp et al., Biochemistry 22, 633-639 (1983)
T1 sequence (P00374 1-187): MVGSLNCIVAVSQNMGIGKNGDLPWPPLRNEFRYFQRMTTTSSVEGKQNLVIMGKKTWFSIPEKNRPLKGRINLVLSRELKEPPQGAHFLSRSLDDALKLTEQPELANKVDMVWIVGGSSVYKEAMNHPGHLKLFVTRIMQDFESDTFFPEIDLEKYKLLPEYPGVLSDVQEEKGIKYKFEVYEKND
The data set is described as follows: Inhibition of isolated human dihydrofolate reductase (Table III). Format: biochemical. The conditions noted are these: DHFR (5 × 10^-8 M); read-out: DHFR IC50, concentration required for 50% inhibition of enzyme activity.

For data set [2], the system named is C3H Mammary Adenocarcinoma. The conditions noted are these: Days 1,3,5,7,9.
A further data set concerns dihydrofolic reducatase. The conditions noted are these: background statement; cited from earlier work.
[3] abbreviates: CCRF-CEM cells, 72 h incubation.

In brackets after ≈: the same amount, converted by molar mass. Where two headings read alike, the source gives them in different places.

Regarding `Nc1nc(Cl)c2c(CCc3ccc(C(=O)N[C@@H](CCC(=O)O)C(=O)O)cc3)c[nH]c2n1` [Example 1, N-[2-amino-4-chloro-[[pyrrolo[2,3-d]-pyrimidin-5-yl]-ethyl]benzoyl]-L-glutamic acid], in the data set with CCRF-CEM cells (setting [3]), the IC50 is over 20 µg/mL.

Take `Nc1nc(S)c2c(CCc3ccc(C(=O)N[C@@H](CCC(=O)O)C(=O)O)cc3)c[nH]c2n1` [Example 2, N-[2-amino-4-mercapto[[pyrrolo[2,3-d]-pyrimidin-5-yl]-ethyl]benzoyl]-L-glutamic acid]: the IC50 in the data set with CCRF-CEM cells (setting [3]) is 0.032 µg/mL (≈ 0.0722 µM).

In the case of `Nc1ncc2c(CCc3ccc(C(=O)N[C@@H](CCC(=O)O)C(=O)O)cc3)c[nH]c2n1` [Example 3, N-[2-amino-[[pyrrolo[2,3-d]-pyrimidin-5-yl]-ethyl]benzoyl]-L-glutamic acid], in the data set on CCRF-CEM cells (setting [3]), the IC50 amounted to 0.019 µg/mL (≈ 0.0462 µM).

For the molecule `Nc1ncc2c(n1)NCC2CCc1ccc(C(=O)N[C@@H](CCC(=O)O)C(=O)O)cc1` (stereo partly drawn) [Example 4, N-[2-amino-[di-hydropyrrolo[2,3-d]pyrimidin-5-yl]-ethyl]benzoyl-L-glutamicacid], the values for the IC50 (with CCRF-CEM cells (setting [3]); in data set [1]) were 0.005 µg/mL (≈ 0.0121 µM) and 96 nM, respectively. The “% INH (percent inhibition of tumor)” value in the data set with 6C3HED lymphosarcoma (0.25 mg/kg, Dailyx8) amounted to 0%; in the data set with 6C3HED lymphosarcoma (0.50 mg/kg, Dailyx8), 1%; with 6C3HED lymphosarcoma (2.00 mg/kg, Dailyx8), 97%; in the data set with 6C3HED lymphosarcoma (2 mg/kg, Days 1,3,5,7), 49%; in the data set on 6C3HED lymphosarcoma (4.00 mg/kg, Dailyx8) it was 100%; in the data set with 6C3HED lymphosarcoma (4 mg/kg, Days 1,3,5,7), 99%. Further, the “% INH (percent inhibition of tumor)” value in the data set on 6C3HED lymphosarcoma (6.25 mg/kg, Dailyx8) was 100%; with 6C3HED lymphosarcoma (12.5 mg/kg, Dailyx8), 100%; with 6C3HED lymphosarcoma (16 mg/kg, Days 1,3,5,7) it was 100%; in data set [2] (2 mg/kg), 10%; in data set [2] (4 mg/kg), 24%; in data set [2] (16 mg/kg), 92%. Besides, in data set [2] (32 mg/kg), the “% INH (percent inhibition of tumor)” value stood at 95%. For the same molecule, the Toxic/Total in the data set with 6C3HED lymphosarcoma (0.25 mg/kg, Dailyx8) was 0/10; with 6C3HED lymphosarcoma (0.50 mg/kg, Dailyx8), 0/10; in the data set on 6C3HED lymphosarcoma (1.00 mg/kg, Dailyx8), 0/10; in the data set on 6C3HED lymphosarcoma (2.00 mg/kg, Dailyx8), 0/10; in the data set on 6C3HED lymphosarcoma (2 mg/kg, Days 1,3,5,7), 0/10; with 6C3HED lymphosarcoma (4.00 mg/kg, Dailyx8), 1/10. Also, the Toxic/Total in the data set on 6C3HED lymphosarcoma (4 mg/kg, Days 1,3,5,7) was 0/10; with 6C3HED lymphosarcoma (6.25 mg/kg, Dailyx8), 6/10; in the data set with 6C3HED lymphosarcoma (8 mg/kg, Days 1,3,5,7), 0/10; with 6C3HED lymphosarcoma (12.5 mg/kg, Dailyx8), 8/10; in the data set with 6C3HED lymphosarcoma (16 mg/kg, Days 1,3,5,7) it was 0/10; in the data set with 6C3HED lymphosarcoma (25 mg/kg, Dailyx8), 10/10. The Toxic/Total with 6C3HED lymphosarcoma (50 mg/kg, Dailyx8) is 10/10; in data set [2] (1 mg/kg), 0/10; in data set [2] (2 mg/kg), 0/10; in data set [2] (4 mg/kg), 0/10.

On to `COc1nc(N)nc2[nH]cc(CCc3ccc(C(=O)N[C@@H](CCC(=O)O)C(=O)O)cc3)c12` [Example 5, N-[2-amino-4-methoxy[[pyrrolo[2,3-d]-pyrimidin-5-yl]-ethyl]benzoyl]-L-glutamic acid], for which the IC50 with CCRF-CEM cells (setting [3]) is over 2 µg/mL.

Regarding `CCN(CC)c1nc(N)nc2[nH]cc(CCc3ccc(C(=O)N[C@@H](CCC(=O)O)C(=O)O)cc3)c12` [Example 6, N-[2-amino-4-diethylamino-[[pyrrolo[2,3-d]-pyrimidin-5-yl]-ethyl]benzoyl]-L-glutamic acid], the IC50 in the data set with CCRF-CEM cells (setting [3]) was determined as 0.9 µg/mL (≈ 1.87 µM).

Take `Nc1ncc2c(n1)NCC(CCc1ccc(C(=O)N[C@@H](CCC(=O)O)C(=O)O)cc1)C2` (stereo partly drawn) [Example 7, N-[2-amino-[[tetrahydropyrido[2,3-d]-pyrimidin-6-yl]-ethyl]benzoyl]-L-glutamic acid]: the IC50 with CCRF-CEM cells (CCRF-CEM, 72 h) was determined as 0.005 µg/mL (≈ 0.0117 µM).

For `CN(Cc1cnc2nc(N)nc(N)c2n1)c1ccc(C(=O)N[C@@H](CCC(=O)O)C(=O)O)cc1` [amethopterin], the “inhibition of the second reduction, from dihydrofolic acid to tetrahydrofolic acid” value with dihydrofolic reducatase is recorded as “inhibit the second reduction”.

Values taken from patent US5196424A, “N-[2-amino-4-substituted[[(pyrrollo or pyrido)[2,3-d]pyrimidinyl]-alkyl]benzoyl]-L-glutamic acids” (priority 1992, dated 1993).
